Laboratory results as given in paper PMC9851200, “Multiparameter phenotypic screening for endogenous TFEB and TFE3 translocation identifies novel chemical series modulating lysosome function” (Autophagy, 2022).
Like-named read-outs stand apart in the source and are kept apart here.

Columns and labels:
Assay type in all cases: binding
[1] = target: kinases (KINOMEscan panel) (Homo sapiens, UniProt P00533, G719C); conditions: kinase EGFR(G719C); NEW KINOMEscan
[2] = target: kinases (KINOMEscan panel) (Homo sapiens, UniProt P00533, G719S); conditions: EGFR(G719S); NEW KINOMEscan
[3] = target: kinases (KINOMEscan panel) (Homo sapiens, UniProt P10721, V559D/V654A); conditions: kinase KIT(V559D,V654A); NEW KINOMEscan
Sequence of kinases (KINOMEscan panel) (Homo sapiens, UniProt P10721, V559D/V654A) (P10721 26-976 V559D/V654A): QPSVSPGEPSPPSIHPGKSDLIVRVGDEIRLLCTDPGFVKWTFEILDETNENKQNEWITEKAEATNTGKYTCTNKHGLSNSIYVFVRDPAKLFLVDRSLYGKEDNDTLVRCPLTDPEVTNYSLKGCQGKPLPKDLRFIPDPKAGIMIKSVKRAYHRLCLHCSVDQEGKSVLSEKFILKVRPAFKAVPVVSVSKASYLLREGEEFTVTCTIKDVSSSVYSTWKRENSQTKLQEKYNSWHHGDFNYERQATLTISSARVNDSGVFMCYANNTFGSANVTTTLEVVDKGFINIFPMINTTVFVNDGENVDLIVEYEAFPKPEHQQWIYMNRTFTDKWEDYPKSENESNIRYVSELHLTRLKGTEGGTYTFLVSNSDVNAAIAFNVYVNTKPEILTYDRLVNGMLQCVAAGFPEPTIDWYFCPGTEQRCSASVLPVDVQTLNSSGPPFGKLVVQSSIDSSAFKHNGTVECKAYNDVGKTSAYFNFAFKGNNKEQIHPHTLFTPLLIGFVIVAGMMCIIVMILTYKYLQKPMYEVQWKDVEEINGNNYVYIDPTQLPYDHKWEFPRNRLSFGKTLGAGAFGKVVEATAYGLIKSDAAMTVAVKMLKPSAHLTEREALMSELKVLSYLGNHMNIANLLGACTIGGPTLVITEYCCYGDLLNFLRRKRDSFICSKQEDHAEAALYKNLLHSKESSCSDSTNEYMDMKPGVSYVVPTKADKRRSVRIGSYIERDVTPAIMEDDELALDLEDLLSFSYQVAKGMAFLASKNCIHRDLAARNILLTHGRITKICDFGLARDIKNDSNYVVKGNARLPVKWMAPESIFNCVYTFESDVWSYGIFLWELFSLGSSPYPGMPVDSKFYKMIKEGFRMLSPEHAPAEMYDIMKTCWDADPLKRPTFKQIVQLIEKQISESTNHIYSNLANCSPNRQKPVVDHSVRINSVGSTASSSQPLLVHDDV

[4] = target: kinases (KINOMEscan panel) (Homo sapiens, UniProt P32298); conditions: kinase GRK4; NEW KINOMEscan
Sequence of kinases (KINOMEscan panel) (Homo sapiens, UniProt P32298) (P32298 whole entry): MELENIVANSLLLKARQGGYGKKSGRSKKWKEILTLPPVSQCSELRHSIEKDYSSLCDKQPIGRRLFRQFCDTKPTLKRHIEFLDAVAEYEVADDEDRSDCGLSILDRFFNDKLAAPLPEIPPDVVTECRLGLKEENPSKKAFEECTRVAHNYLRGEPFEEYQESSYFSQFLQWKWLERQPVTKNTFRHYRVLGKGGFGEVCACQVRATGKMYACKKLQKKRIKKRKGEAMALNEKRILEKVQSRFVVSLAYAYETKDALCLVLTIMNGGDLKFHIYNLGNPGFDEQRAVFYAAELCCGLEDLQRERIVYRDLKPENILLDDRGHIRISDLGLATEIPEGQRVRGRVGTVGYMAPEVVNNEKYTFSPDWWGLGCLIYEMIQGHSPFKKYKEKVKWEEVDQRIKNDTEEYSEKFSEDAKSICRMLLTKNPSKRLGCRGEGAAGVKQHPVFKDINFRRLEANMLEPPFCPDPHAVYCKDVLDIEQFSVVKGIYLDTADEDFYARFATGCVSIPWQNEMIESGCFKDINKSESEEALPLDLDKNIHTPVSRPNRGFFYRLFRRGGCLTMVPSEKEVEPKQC

[5] = target: kinases (KINOMEscan panel) (Homo sapiens, UniProt P42336, C420R); conditions: PIK3CA(C420R); NEW KINOMEscan
[6] = target: kinases (KINOMEscan panel) (Homo sapiens, UniProt P42336, Q546K); conditions: kinase PIK3CA(Q546K); NEW KINOMEscan
Sequence of kinases (KINOMEscan panel) (Homo sapiens, UniProt P42336, Q546K) (P42336 whole entry Q546K): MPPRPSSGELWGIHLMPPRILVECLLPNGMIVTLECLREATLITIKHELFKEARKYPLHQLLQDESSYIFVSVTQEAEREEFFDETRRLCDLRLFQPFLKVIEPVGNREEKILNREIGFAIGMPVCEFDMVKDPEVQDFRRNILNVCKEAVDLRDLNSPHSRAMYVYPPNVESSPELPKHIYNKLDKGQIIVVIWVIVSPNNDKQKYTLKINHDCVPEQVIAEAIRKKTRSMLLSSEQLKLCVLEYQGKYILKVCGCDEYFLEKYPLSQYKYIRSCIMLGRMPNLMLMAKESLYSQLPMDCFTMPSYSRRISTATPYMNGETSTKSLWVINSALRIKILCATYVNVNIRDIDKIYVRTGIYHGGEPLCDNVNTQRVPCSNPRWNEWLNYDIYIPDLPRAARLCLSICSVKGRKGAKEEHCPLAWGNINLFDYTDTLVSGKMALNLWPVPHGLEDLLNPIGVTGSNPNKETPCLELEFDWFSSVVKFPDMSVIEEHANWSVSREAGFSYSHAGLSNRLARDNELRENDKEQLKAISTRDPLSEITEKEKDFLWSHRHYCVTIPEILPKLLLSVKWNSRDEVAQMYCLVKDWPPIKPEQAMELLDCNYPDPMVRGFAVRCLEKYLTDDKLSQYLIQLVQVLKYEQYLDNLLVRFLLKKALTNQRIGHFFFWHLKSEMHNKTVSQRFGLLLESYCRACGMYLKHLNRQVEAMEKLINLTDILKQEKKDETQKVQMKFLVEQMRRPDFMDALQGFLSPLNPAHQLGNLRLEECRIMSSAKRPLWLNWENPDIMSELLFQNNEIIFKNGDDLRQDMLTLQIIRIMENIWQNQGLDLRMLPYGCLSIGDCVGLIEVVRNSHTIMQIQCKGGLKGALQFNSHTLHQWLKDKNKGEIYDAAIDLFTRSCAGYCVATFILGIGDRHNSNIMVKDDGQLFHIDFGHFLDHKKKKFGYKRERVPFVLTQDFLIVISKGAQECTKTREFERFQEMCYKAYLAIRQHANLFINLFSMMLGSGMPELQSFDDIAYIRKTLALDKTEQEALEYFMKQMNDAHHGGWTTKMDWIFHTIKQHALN

[7] = target: kinases (KINOMEscan panel) (Homo sapiens, UniProt P78368); conditions: kinase CSNK1G2; NEW KINOMEscan
[8] = target: kinases (KINOMEscan panel) (Homo sapiens, UniProt Q00526); conditions: CDK3; NEW KINOMEscan
Sequence of kinases (KINOMEscan panel) (Homo sapiens, UniProt Q00526) (Q00526 whole entry): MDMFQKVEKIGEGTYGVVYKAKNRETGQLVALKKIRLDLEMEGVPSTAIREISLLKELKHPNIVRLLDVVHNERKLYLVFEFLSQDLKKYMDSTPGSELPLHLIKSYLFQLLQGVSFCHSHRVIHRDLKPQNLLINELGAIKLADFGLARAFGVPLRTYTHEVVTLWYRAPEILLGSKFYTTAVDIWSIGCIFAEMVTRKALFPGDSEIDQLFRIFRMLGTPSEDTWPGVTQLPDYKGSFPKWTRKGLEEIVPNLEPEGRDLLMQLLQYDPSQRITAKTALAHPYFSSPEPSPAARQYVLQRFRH

[9] = target: kinases (KINOMEscan panel) (Homo sapiens, UniProt Q13464); conditions: ROCK1; NEW KINOMEscan
[10] = target: kinases (KINOMEscan panel) (Homo sapiens, UniProt Q86V86); conditions: kinase PIM3; NEW KINOMEscan
[11] = target: T1, kinases (KINOMEscan panel) (Homo sapiens, UniProt Q8IW41)
T1 sequence (Q8IW41 1-473): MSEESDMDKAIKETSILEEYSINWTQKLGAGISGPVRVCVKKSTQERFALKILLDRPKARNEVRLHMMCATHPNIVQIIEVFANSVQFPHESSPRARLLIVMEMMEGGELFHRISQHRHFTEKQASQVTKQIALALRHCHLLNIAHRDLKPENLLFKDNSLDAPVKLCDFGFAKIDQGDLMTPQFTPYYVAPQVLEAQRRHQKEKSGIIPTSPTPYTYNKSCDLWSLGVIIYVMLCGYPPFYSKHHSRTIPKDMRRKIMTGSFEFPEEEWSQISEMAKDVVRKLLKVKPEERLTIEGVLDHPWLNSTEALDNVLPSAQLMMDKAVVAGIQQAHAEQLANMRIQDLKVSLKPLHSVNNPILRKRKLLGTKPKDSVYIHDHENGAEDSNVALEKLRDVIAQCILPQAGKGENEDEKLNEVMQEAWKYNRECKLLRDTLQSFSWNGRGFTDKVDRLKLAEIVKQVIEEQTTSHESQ

[12] = target: T2, kinases (KINOMEscan panel) (Homo sapiens, UniProt Q8NG66); conditions: NEW KINOMEscan
T2 sequence (Q8NG66 1-645): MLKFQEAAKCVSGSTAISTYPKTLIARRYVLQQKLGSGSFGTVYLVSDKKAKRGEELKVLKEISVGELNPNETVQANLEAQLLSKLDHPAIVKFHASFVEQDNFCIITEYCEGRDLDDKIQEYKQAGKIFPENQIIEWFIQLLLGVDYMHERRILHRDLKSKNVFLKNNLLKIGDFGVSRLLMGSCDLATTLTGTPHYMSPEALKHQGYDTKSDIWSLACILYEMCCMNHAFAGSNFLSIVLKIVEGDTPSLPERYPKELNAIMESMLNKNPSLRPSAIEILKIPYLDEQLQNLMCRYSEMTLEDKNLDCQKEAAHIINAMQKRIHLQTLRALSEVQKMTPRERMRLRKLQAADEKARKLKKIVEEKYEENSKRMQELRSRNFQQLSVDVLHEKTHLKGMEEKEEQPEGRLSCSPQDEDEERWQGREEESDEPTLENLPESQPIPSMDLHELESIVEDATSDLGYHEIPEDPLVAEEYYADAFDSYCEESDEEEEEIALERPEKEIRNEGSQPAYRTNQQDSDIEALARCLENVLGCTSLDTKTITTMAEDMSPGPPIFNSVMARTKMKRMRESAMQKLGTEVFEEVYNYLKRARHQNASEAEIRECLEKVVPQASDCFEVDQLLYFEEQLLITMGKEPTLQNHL

[13] = target: kinases (KINOMEscan panel) (Homo sapiens, UniProt Q9Y3S1); conditions: WNK2; NEW KINOMEscan
[14] = target: kinases (KINOMEscan panel) (Homo sapiens, UniProt Q9Y463); conditions: kinase DYRK1B; NEW KINOMEscan
Sequence of kinases (KINOMEscan panel) (Homo sapiens, UniProt Q9Y463) (Q9Y463 whole entry): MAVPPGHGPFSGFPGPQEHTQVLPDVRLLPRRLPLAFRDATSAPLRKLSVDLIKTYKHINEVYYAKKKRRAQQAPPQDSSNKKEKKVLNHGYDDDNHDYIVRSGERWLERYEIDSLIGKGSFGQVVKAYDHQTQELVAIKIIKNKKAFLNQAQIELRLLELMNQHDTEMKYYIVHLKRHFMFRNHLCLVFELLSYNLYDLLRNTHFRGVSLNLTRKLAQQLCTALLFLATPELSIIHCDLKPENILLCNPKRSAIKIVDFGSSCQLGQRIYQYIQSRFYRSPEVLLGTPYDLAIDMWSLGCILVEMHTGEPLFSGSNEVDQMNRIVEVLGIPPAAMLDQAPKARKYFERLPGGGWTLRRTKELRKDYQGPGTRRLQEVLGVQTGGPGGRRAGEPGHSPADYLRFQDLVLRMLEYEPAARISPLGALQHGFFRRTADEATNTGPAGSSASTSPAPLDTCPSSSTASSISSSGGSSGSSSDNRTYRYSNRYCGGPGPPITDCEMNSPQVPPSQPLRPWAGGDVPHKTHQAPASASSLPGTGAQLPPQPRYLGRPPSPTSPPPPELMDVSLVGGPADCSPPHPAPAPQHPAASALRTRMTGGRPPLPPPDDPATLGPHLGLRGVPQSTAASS

[15] = tested on: kinases (KINOMEscan panel); conditions: NEW KINOMEscan; for KINOMEscan EGFR(L747-E749del, A750P): kinase EGFR(L747-E749del, A750P); for KINOMEscan EGFR(L747-T751del,Sins): kinase EGFR(L747-T751del,Sins); for KINOMEscan FLT3(ITD): kinase FLT3(ITD)

Sequence of kinases (KINOMEscan panel) (Homo sapiens, UniProt P00533, G719C) (P00533 25-1210 G719C): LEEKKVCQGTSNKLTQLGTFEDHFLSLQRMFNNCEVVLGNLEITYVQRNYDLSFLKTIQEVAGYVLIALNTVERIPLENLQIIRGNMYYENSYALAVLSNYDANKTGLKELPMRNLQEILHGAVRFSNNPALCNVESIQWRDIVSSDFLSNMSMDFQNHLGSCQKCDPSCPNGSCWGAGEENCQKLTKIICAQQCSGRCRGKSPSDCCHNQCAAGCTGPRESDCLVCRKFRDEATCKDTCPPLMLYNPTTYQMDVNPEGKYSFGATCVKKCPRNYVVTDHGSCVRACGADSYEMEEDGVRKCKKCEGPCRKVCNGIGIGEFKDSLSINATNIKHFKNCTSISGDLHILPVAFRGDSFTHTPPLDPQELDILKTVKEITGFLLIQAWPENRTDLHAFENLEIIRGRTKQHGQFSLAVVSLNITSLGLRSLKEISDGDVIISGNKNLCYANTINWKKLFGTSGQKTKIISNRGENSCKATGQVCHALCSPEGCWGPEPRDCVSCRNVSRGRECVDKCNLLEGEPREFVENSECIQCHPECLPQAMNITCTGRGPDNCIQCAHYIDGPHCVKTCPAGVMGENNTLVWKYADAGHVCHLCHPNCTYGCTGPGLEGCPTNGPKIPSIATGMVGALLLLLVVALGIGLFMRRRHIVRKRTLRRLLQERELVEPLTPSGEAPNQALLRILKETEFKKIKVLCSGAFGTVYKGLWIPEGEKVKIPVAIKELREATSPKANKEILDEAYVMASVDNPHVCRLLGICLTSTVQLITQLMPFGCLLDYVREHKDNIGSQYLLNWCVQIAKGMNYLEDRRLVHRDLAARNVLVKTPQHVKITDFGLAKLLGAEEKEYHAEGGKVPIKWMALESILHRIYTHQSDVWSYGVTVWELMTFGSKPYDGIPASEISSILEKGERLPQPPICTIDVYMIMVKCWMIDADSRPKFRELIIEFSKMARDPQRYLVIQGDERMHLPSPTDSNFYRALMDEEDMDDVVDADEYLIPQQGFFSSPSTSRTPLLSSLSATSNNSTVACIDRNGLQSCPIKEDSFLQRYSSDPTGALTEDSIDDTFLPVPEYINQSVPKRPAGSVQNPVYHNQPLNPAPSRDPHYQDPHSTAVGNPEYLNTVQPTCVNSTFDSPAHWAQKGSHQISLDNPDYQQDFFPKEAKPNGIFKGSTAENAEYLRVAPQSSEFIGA

SMILES | KINOMEscan EGFR(G719C) [1] | KINOMEscan EGFR(G719S) [2] | KINOMEscan KIT(V559D,V654A) [3] | KINOMEscan GRK4 [4] | KINOMEscan PIK3CA(C420R) [5] | KINOMEscan PIK3CA(Q546K) [6] | KINOMEscan CSNK1G2 [7] | KINOMEscan CDK3 [8] | KINOMEscan ROCK1 [9] | KINOMEscan PIM3 [10] | KINOMEscan NEK11 [12] | KINOMEscan WNK2 [13] | KINOMEscan DYRK1B [14] | KINOMEscan EGFR(L747-S752del, P753S) [15] | KINOMEscan FLT3(ITD,D835V) [15] | KINOMEscan FLT3(ITD,F691L) [15] | KINOMEscan PRKAA2 [15] | KINOMEscan EGFR(L747-E749del, A750P) [15] | KINOMEscan EGFR(L747-T751del,Sins) [15] | KINOMEscan FLT3(ITD) [15] | other results
Cc1cccc(-c2nc(Nc3ccc4nn(C)cc4c3)c3ccccc3n2)n1 [NK167] | 0 | 0 | 15 | 0 | 0 | 0 | 12 | 0 | 0 | 0 | 0 | 0 | 12 | 0 | 7 | 33 | 11 | 0 | 0 | 0 | KINOMEscan MAPKAPK5 ([11]; MAPKAPK5, NEW KINOMEscan): 0; KINOMEscan PRKAA2 ([15]; kinase PRKAA2): 0
Cc1cccc(-c2nc(N(C)c3ccc4ncsc4c3)c3ccccc3n2)n1 [NK-161] | 0 | 0 | 4 | 0 | 0 | 7 | 25 | 0 | 12 | 0 | 2 | 0 | 16 | 19 | 25 | 25 | 20 | 0 | 0 | 4 | KINOMEscan MAPKAPK5 [11]: 0; KINOMEscan PRKAA2 ([15]; kinase PRKAA2): 0
